The values below come from PubChem BioAssay AID260 (DTP/NCI, 2004).

This test deals with CD2F1 mice, intracerebral L1210 leukemia, survival T/C. Kind of test: NCI In Vivo Anticancer Drug Screen. Data for tumor model L1210 Leukemia (intracerebral) in CD2F1 (CDF1) mice. The settings on record: higher = longer survival. The procedure: The antitumor activity of compounds was measured in mice bearing transplantable tumors. Survival or tumor size were measured and the results are expressed as the measurement made in the treated group (T) divided by the measurement made in the vehicle treated control group (C). The tumor model used in this assay is L1210 Leukemia (intracerebral) in CD2F1 (CDF1) mice

Setting [1] is: endpoint: median survival time, dose: 16.0 mg/kg/injection, schedule: Q01DX005 (ip), vehicle: saline.
The mark [2] stands for this setting: endpoint: median survival time, dose: 32.0 mg/kg/injection, schedule: Q01DX005 (ip), vehicle: saline.

Several values for one entry are separate records, joined by “and”; a condition that tells them apart may be missing. Identical values can stand only once. Toxic doses and inconclusive results are not listed.

Take `COc1cc([C@@H]2c3cc4c(cc3[C@@H](OC3OC5COC(C)OC5C(O)C3O)[C@H]3COC(=O)[C@H]23)OCO4)cc(OC)c1O` (stereo partly specified): the T/C was 103 % of control (endpoint: median survival time, dose: 0.5 mg/kg/injection, schedule: Q01DX009 (ip), vehicle: saline); 101 % of control (endpoint: median survival time, dose: 1.0 mg/kg/injection, schedule: Q01DX009 (ip), vehicle: saline); 94 % of control (endpoint: median survival time, dose: 2.0 mg/kg/injection, schedule: Q01DX009 (ip), vehicle: saline); 91 % of control (endpoint: median survival time, dose: 4.0 mg/kg/injection, schedule: Q01DX009 (ip), vehicle: saline); 102 % of control (endpoint: median survival time, dose: 8.0 mg/kg/injection, schedule: Q01DX009 (ip), vehicle: saline).
For `CNc1nc(N(C)C)nc(N(C)C)n1`, the T/C (endpoint: median survival time, dose: 12.5 mg/kg/injection, schedule: Q01DX009 (ip), vehicle: saline) was 98 % of control and 114 % of control.
As for `CCC1=C(c2ccc(OC)cc2)CCC(C(=O)O)C1C` (stereo unspecified), the T/C is 103 % of control (endpoint: median survival time, dose: 4.0 mg/kg/injection, schedule: Q01DX005 (ip), vehicle: saline); 102 % of control (endpoint: median survival time, dose: 4.0 mg/kg/injection, schedule: Q01DX005 (ip), vehicle: suspension in saline); 114 % of control (endpoint: median survival time, dose: 8.0 mg/kg/injection, schedule: Q01DX005 (ip), vehicle: saline); 102 % of control (endpoint: median survival time, dose: 8.0 mg/kg/injection, schedule: Q01DX005 (ip), vehicle: suspension in saline); 112 % of control under setting [1]; 96 % of control (endpoint: median survival time, dose: 16.0 mg/kg/injection, schedule: Q01DX005 (ip), vehicle: suspension in saline). For the same molecule, the T/C is 102 % of control under setting [2] and 104 % of control (endpoint: median survival time, dose: 32.0 mg/kg/injection, schedule: Q01DX005 (ip), vehicle: suspension in saline).
For the molecule `Cc1c2ccncc2c(C)c2c1[nH]c1ccccc12`, the T/C (endpoint: mean survival time, dose: 10.0 mg/kg/injection, schedule: Q01DX009 (ip), vehicle: saline) was 157 % of control and the T/C (endpoint: mean survival time, dose: 20.0 mg/kg/injection, schedule: Q01DX009 (ip), vehicle: saline) was 157 % of control.
Consider `CN(Cc1cnc2nc(N)nc(N)c2n1)c1c(Cl)cc(C(=O)NC(CCC(=O)O)C(=O)O)cc1Cl` (stereo unspecified), for which the T/C is 101 % of control and 111 % of control under setting [1]; 111 % of control under setting [2]; 119 % of control and 120 % of control (endpoint: median survival time, dose: 64.0 mg/kg/injection, schedule: Q01DX005 (ip), vehicle: saline).
Consider `O=P1(N(CCCl)CCCl)NC(OO)CCO1` (stereo unspecified), for which the T/C (endpoint: median survival time, dose: 40.0 mg/kg/injection, schedule: Q01DX001 (ip), vehicle: saline) was 100 % of control; the T/C (endpoint: median survival time, dose: 80.0 mg/kg/injection, schedule: Q01DX001 (ip), vehicle: saline) was 102 % of control; the T/C (endpoint: median survival time, dose: 160.0 mg/kg/injection, schedule: Q01DX001 (ip), vehicle: saline) was 103 % of control.
For the molecule `O=C1C(N2CC2)=C(N2CCCC(O)C2)C(=O)C(N2CC2)=C1N1CCCC(O)C1` (stereo unspecified), the T/C was 103 % of control and 110 % of control (endpoint: mean survival time, dose: 2.0 mg/kg/injection, schedule: Q04DX003 (ip), vehicle: saline); 121 % of control and 110 % of control (endpoint: mean survival time, dose: 4.0 mg/kg/injection, schedule: Q04DX003 (ip), vehicle: saline); 114 % of control (endpoint: mean survival time, dose: 6.0 mg/kg/injection, schedule: Q04DX003 (ip), vehicle: saline); 114 % of control (endpoint: mean survival time, dose: 8.0 mg/kg/injection, schedule: Q04DX003 (ip), vehicle: saline).
Take `CC(=O)c1ccc(N=NN(C)C)cc1`: the T/C (endpoint: mean survival time, dose: 5.0 mg/kg/injection, schedule: Q01DX007 (ip), vehicle: other) was 107 % of control; the T/C (endpoint: mean survival time, dose: 10.0 mg/kg/injection, schedule: Q01DX007 (ip), vehicle: other) is 89 % of control; the T/C (endpoint: mean survival time, dose: 20.0 mg/kg/injection, schedule: Q01DX007 (ip), vehicle: other) was 97 % of control; the T/C (endpoint: mean survival time, dose: 40.0 mg/kg/injection, schedule: Q01DX007 (ip), vehicle: other) was 103 % of control; the T/C (endpoint: mean survival time, dose: 60.0 mg/kg/injection, schedule: Q01DX007 (ip), vehicle: other) is 93 % of control.
`N[C@H](C(=O)O)[C@H]1ON=C(Cl)[C@@H]1O`: the T/C is, setting by setting: (endpoint: mean survival time, dose: 256.0 mg/kg/injection, schedule: Q01DX009 (ip), vehicle: saline) 118 % of control; (endpoint: mean survival time, dose: 512.0 mg/kg/injection, schedule: Q01DX009 (ip), vehicle: saline) 98 % of control; (endpoint: mean survival time, dose: 1024.0 mg/kg/injection, schedule: Q01DX009 (ip), vehicle: saline) 98 % of control.
As for `CC(C)(CO)COC(=O)NC1=C(N2CC2)C(=O)C(NC(=O)OCC(C)(C)CO)=C(N2CC2)C1=O`, the T/C is 102 % of control and 105 % of control (endpoint: median survival time, dose: 0.75 mg/kg/injection, schedule: Q01DX009 (ip), vehicle: water); 103 % of control and 108 % of control (endpoint: median survival time, dose: 1.5 mg/kg/injection, schedule: Q01DX009 (ip), vehicle: water); 105 % of control and 110 % of control (endpoint: median survival time, dose: 3.0 mg/kg/injection, schedule: Q01DX009 (ip), vehicle: water); 110 % of control and 113 % of control (endpoint: median survival time, dose: 6.0 mg/kg/injection, schedule: Q01DX009 (ip), vehicle: water); 119 % of control and 113 % of control (endpoint: median survival time, dose: 12.0 mg/kg/injection, schedule: Q01DX009 (ip), vehicle: water).
On to `N=[N+]=CC(=O)CCC(NC(=O)C(CCC(=O)C=[N+]=N)NC(=O)CCC(N)C(=O)O)C(=O)O` (stereo unspecified), for which the T/C by setting is: (endpoint: median survival time, dose: 0.05 mg/kg/injection, schedule: Q01DX005 (ip), vehicle: Klucel (hydroxypropylcellulose) (HPC)) 95 % of control and 100 % of control; (endpoint: median survival time, dose: 0.1 mg/kg/injection, schedule: Q01DX005 (ip), vehicle: Klucel (hydroxypropylcellulose) (HPC)) 93 % of control and 100 % of control; (endpoint: median survival time, dose: 0.2 mg/kg/injection, schedule: Q01DX005 (ip), vehicle: Klucel (hydroxypropylcellulose) (HPC)) 96 % of control and 102 % of control; (endpoint: median survival time, dose: 0.4 mg/kg/injection, schedule: Q01DX005 (ip), vehicle: Klucel (hydroxypropylcellulose) (HPC)) 94 % of control and 100 % of control.
`CN(C)C1=C(N2CC2)C(=O)C(N(C)C)=C(N2CC2)C1=O`: the T/C is 122 % of control and 110 % of control (endpoint: mean survival time, dose: 0.75 mg/kg/injection, schedule: Q04DX003 (ip), vehicle: saline); 152 % of control and 154 % of control (endpoint: mean survival time, dose: 1.5 mg/kg/injection, schedule: Q04DX003 (ip), vehicle: saline); 156 % of control and 172 % of control (endpoint: mean survival time, dose: 3.0 mg/kg/injection, schedule: Q04DX003 (ip), vehicle: saline).
With `O=NN(CCCl)C(=O)NC1C(O)C(O)C(O)C(O)C1O` (stereo unspecified), the T/C (endpoint: mean survival time, dose: 9.0 mg/kg/injection, schedule: Q01DX001 (ip), vehicle: saline) was 110 % of control; the T/C (endpoint: mean survival time, dose: 13.0 mg/kg/injection, schedule: Q01DX001 (ip), vehicle: saline) was 117 % of control; the T/C (endpoint: mean survival time, dose: 44.0 mg/kg/injection, schedule: Q01DX001 (ip), vehicle: saline) is 115 % of control; the T/C (endpoint: mean survival time, dose: 67.0 mg/kg/injection, schedule: Q01DX001 (ip), vehicle: saline) was 95 % of control.
On to `COc1cc(C[C@H]2c3cc(OC)c(OC)cc3CCN2C)c(Oc2cc3c(cc2OC)-c2c(OC)c(OC)cc4c2[C@H](C3)N(C)CC4)cc1OC`, for which the T/C by setting is: (endpoint: median survival time, dose: 50.0 mg/kg/injection, schedule: Q01DX005 (ip), vehicle: Klucel (hydroxypropylcellulose) (HPC)) 97 % of control; (endpoint: median survival time, dose: 100.0 mg/kg/injection, schedule: Q01DX005 (ip), vehicle: Klucel (hydroxypropylcellulose) (HPC)) 102 % of control; (endpoint: median survival time, dose: 200.0 mg/kg/injection, schedule: Q01DX005 (ip), vehicle: Klucel (hydroxypropylcellulose) (HPC)) 94 % of control.
`NC(C/[N+]([O-])=N/O)C(=O)O` (stereo unspecified): the T/C is, setting by setting: (endpoint: median survival time, dose: 1.0 mg/kg/injection, schedule: Q01DX009 (ip), vehicle: saline with Tween-80) 98 % of control; (endpoint: median survival time, dose: 2.0 mg/kg/injection, schedule: Q01DX009 (ip), vehicle: saline with Tween-80) 105 % of control; (endpoint: median survival time, dose: 4.0 mg/kg/injection, schedule: Q01DX009 (ip), vehicle: saline with Tween-80) 101 % of control; (endpoint: median survival time, dose: 8.0 mg/kg/injection, schedule: Q01DX009 (ip), vehicle: saline with Tween-80) 101 % of control; (endpoint: median survival time, dose: 16.0 mg/kg/injection, schedule: Q01DX009 (ip), vehicle: saline with Tween-80) 102 % of control; (endpoint: median survival time, dose: 32.0 mg/kg/injection, schedule: Q01DX009 (ip), vehicle: saline with Tween-80) 104 % of control. The T/C runs as follows: (endpoint: median survival time, dose: 56.25 mg/kg/injection, schedule: Q01DX009 (ip), vehicle: saline) 115 % of control; (endpoint: median survival time, dose: 100.0 mg/kg/injection, schedule: Q01DX009 (ip), vehicle: Klucel (hydroxypropylcellulose) (HPC)) 110 % of control and 112 % of control; (endpoint: median survival time, dose: 112.5 mg/kg/injection, schedule: Q01DX009 (ip), vehicle: saline) 89 % of control; (endpoint: median survival time, dose: 200.0 mg/kg/injection, schedule: Q01DX009 (ip), vehicle: Klucel (hydroxypropylcellulose) (HPC)) 86 % of control and 87 % of control; (endpoint: median survival time, dose: 225.0 mg/kg/injection, schedule: Q01DX009 (ip), vehicle: saline) 89 % of control.
For `CC[n+]1ccc(Nc2ccc(NC(=O)c3ccc(Nc4cc[n+](CC)c5ccc(N)cc45)cc3)cc2)cc1`, the T/C is 110 % of control (endpoint: mean survival time, dose: 2.0 mg/kg/injection, schedule: Q01DX009 (ip), vehicle: saline) and 111 % of control (endpoint: mean survival time, dose: 4.0 mg/kg/injection, schedule: Q01DX009 (ip), vehicle: saline).
